Legend:
HMG-CoA reductase [1] = experiment: Rate of HMG-CoA reductase synthesis (35S-labeled immunoprecipitable reductase) in lovastatin-treated C100 cells; format: cell-based, Syrian Hamster; conditions: for reductase synthesis lowered by: lovastatin treated C100 cells
Experimental: (§1) As discussed above, the end products of plant mevalonate metabolism, i.e., isoprenoids, suppress mammalian HMG-CoA reductase. To characterize the level at which plant-derived isoprenoids regulate reductase activity, lovastatin treated Syrian Hamster C100 cells were incubated with mevalonate or an isoprenoid (limonene, perillyl alcohol, or geraniol). These monoterpenes were selected because they are representative of isoprenoids found in a wide variety of plants, fruits and grains. C100 cells in which endogenous mevalonate biosynthesis is blocked with lovastatin have been a useful system to evaluate the effects of oxysterols and mevalonate-derived isoprenoids, either alone or in combination, on HMG-CoA reductase levels and rates of synthesis or degradation. […] The effects of the three isoprenoids on reductase degradation were also determined by measuring the half-life of HMG-CoA reductase.

HMG-CoA reductase mRNA = HMG-CoA reductase mRNA levels in lovastatin-treated C100 cells; format: cell-based, Syrian Hamster; conditions: for reductase mRNA level lowered by / impact on HMG-CoA reductase mRNA levels: lovastatin treated C100 cells
Experimental: as §1

4E-BP1 (Ser65) = experiment: Western blot of phospho-4E-BP1 (Ser65) in prostate cancer cells; format: cell-based, human; conditions: both prostate cell lines (PC-3, DU145); perillyl alcohol 400 μM 16 hr, genistein 40 μM 4 hr, LY 294002 10 μM 4 hr
Experimental: (§2) We treated PC-3, DU145, and Caco-2 (colon adenocarcinoma) cells with lovastatin (LVT), perillyl alcohol (PA), the P13 kinase inhibitor, LY294002 (LY), or genistein (Gen). PC-3, DU145, and Caco-2 cells were plated in RPMI plus 10% FBS and cells allowed to grow for 24 hr. Medium was supplemented with lovastatin (1 μM for 16 hr), perillyl alcohol (400 μM for 16 hr), genistein (40 μM for 4 hr), or LY 294002 (10 μM for 4 hr). Cells were lysed in RIPA buffer and protein extracts quantitated. Aliquots (100 μg) were electrophoresed and transferred to PVDF membranes. […] The eIF4E (FIG. 6, top panel) and 4E-BP1 (FIG. 6, middle panel) were detected using antibodies specific for eIF4E and phospho-4E-BP1 (Ser65). Specific proteins were detected by ECL using a Kodak Image Station.
(§3) Referring now to FIG. 6 which depicts a Western blot analysis of eIF4E, 4E-BP1 (Ser65) and Rab3A from various cells. […] The same blot was reprobed with phospho-4E-BP1 (Ser65). […] Rab3A levels were also compared in the highly metastatic PC-3 cells, DU145 and in Caco-2, which is considered to have low metastatic potential.

MMP-9 = experiment: Gelatin zymography of conditioned media, MMP-9; format: cell-based, human; conditions: for MMP-9 Count: perillyl alcohol 400 μM, 16 hr
Excerpt: (§4) Since the effects of isoprenoids with or without genistein on prostate cancer metastasis had not been explored prior to the present invention, the effects of genistein, perillyl alcohol, and γ-tocotrienol were studied on MMP-9 and MMP-2 activity. MMP activity as described in the background has been linked in part to the Ras/ERK pathway and may also be involved in a second unidentified pathway that is ERK-independent. Therefore, we employed gelatin zymography to study effects of isoprenoids on MMP-9 and MMP-2 activation and secretion.
(§5) Referring now to FIG. 8. which depicts a gelatin zymogram showing the effects of perillyl alcohol (PA), genistein (Gen), or γ-tocotrienol (g-Toco) on MMP activity. The results of FIG. 8 are quantified in Table 2. Cells were grown in 100 mm culture plates to approximately 80% confluency. Prior to experimental treatments, cells were washed extensively in serum-free medium and then incubated for […] in serum-free media with Mito plus® serum supplement (Becton-Dickinson) in the absence or presence of isoprenoids. Conditioned media were then collected from PC-3 and DU145 cells that were incubated in the absence or presence of genistein (20 μM), perillyl alcohol (400 μM), or γ-tocotrienol (20 μM) for 16 hr and clarified by centrifugation. MMP activity in conditioned media was analyzed by mixing aliquots with SDS sample loading buffer without β-mercaptoethanol (non-reducing). Samples were electrophoresed on a 10% polyacrylamide (29:1) separating gel containing 0.1% (w/v) gelatin. Gels were incubated in developing buffer at 37° C. overnight. Enzyme activity was observed after staining with Coomassie Blue as clear bands on a blue background of undigested gelatin. Band density was then normalized to cell number prior to- and post-treatment (See FIG. 8).

MMP-2 = experiment: Gelatin zymography of conditioned media, MMP-2; format: cell-based, human; conditions: for MMP-2 Count: perillyl alcohol 400 μM, 16 hr
Excerpt: as §4, §5

[2] = tested on: PC-3 prostate cancer cells; experiment: Membrane Invasion Culture System (MICS); format: cell-based, human; conditions: for percent invaded: PC-3, 24 hr, MATRIGEL coated membrane, Perillyl Alcohol 400 μM, Genistein 20 μM, γ-tocotrienol 20 μM, control 12.5%; for invasive ability of PC-3 cells: PC-3, MICS
Excerpt: The Membrane Invasion Culture System (MICS) represents a direct measurement of intracellular reorganization and invasive capability of cancer cell lines. The MICS protocol was used to quantitate the effects of isoprenoid treatment on the invasive potential of PC-3 prostate cancer cells. Polycarbonate membranes (10 μm pores) were coated with a basement membrane matrix (MATRIGEL™, BD Biosciences) and placed inside MICS chambers. Both upper and lower chambers were filled with serum-free RPMI 1640 containing Mito plus™. Cells were seeded onto the upper wells at 1×10^5 cells/well. After 24 hr, cells that had invaded through the membrane were collected and counted. Invasion rates were calculated as the percent cells invading the matrix coated membrane compared to total number of cells seeded (Table 3).

DU145 = experiment: In vitro collagen gel contraction assay, DU145; format: cell-based, human; conditions: Perillyl Alcohol 400 μM, Genistein 20 μM, control 3.0
Experimental: (§6) An in vitro collagen gel contraction assay was used to evaluate the effects of isoprenoids on biomechanical tumor cell matrix remodeling from various prostate cancer cell lines. Collagen gel suspensions for each tumor cell line were prepared by mixing a 250 μl suspension of 3×10^6 cells/ml with 250 μl of undiluted rat tail collagen type I (BD Biosciences). The resultant collagen gel suspensions were dripped onto 35 mm petri dishes containing 3 ml RPMI 1640 in 10% FBS to prevent adhesion of collagen to the dish. Collagen gel suspensions were allowed to polymerize for one hr. Isoprenoid treatments were added 24 hr after exchanging culture medium and were removed 24-48 hr post treatment.

PC-3 = experiment: In vitro collagen gel contraction assay, PC-3; format: cell-based, human; conditions: for Diameter (cm) of collagen gel: PC-3, Perillyl Alcohol 400 μM, Genistein 20 μM, control 2.0
Experimental: as §6
Table 4 summaries the effects on collagen gel ball diameters for both PC3 and DU145 as a result from being exposed to various isoprenoids during the in vitro collagen gel contraction assay.

[3] = tested on: androgen-responsive prostate tumor cell line LNCaP; conditions: cited from earlier work
[4] = tested on: human prostate cancer cells; conditions: human prostate cancer cells in culture; cited from earlier work
HMG-CoA reductase [5] = experiment: HMG-CoA reductase degradation (half-life) in lovastatin-treated SV28 cells; format: cell-based
Experimental: as §1

Rab3A = experiment: Western blot of Rab3A; format: cell-based, human; conditions: DU145 cells; perillyl alcohol 400 μM 16 hr
Experimental: as §2, §3

[6] = DU145 conditioned media, genistein 20 μM (control 30.71), γ-tocotrienol 20 μM (control 23.5)
[7] = PC-3 conditioned media, genistein 20 μM (control 46.95), γ-tocotrienol 20 μM (control 18.14)
[8] = DU145 conditioned media, genistein 20 μM (control 15.05), γ-tocotrienol 20 μM (control 5.5)
[9] = PC-3 conditioned media, genistein 20 μM (control 11.85), γ-tocotrienol 20 μM (control 18.14)

Compound	MMP-9 activity (MMP-9; DU145 cells)	MMP-9 Count (MMP-9; [6])	MMP-9 activity (MMP-9; PC-3 cells)	MMP-9 Count (MMP-9; [7])	MMP-2 Count (MMP-2; [8])	MMP-2 Count (MMP-2; [9])	percent invaded [2] [%]	invasive ability of PC-3 cells [2]	reductase synthesis lowered by (HMG-CoA reductase [1]) [%]	also measured
CC[C@H](C)C(=O)O[C@H]1C[C@@H](C)C=C2C=C[C@H](C)[C@H](CC[C@@H]3C[C@@H](O)CC(=O)O3)[C@H]21 [Lovastatin, lovastatin, reference compound]	–	–	–	–	–	–	–	–	–	Rate of Synthesis (reductase) (HMG-CoA reductase [1]; percentage (mean ± S.D.) of lovastatin-treated C100 cells set at 100%, 1 hr 35S labeling, mevalonate 10 mM, limonene 5 mM, perillyl alcohol 0.7 mM, geraniol 0.4 mM): 100 ± 15%; mRNA Levels (reductase) (HMG-CoA reductase mRNA; percentage of lovastatin-treated cells set at 100%, corrected to RP S17 mRNA, mevalonate 10 mM, limonene 5 mM, perillyl alcohol 0.7 mM, geraniol 0.4 mM): 100 ± 5%
O=c1c(-c2ccc(O)cc2)coc2cc(O)cc(O)c12 [Genistein, genistein]	exhibited no similar effect	47.64	nearly ninety percent	5.25	23.54	4.25	0	inhibited the invasive ability of PC-3 cells, with genistein exhibiting the greatest effect	–	4E-BP1 Ser65 phosphorylation (Western blot) (4E-BP1 (Ser65)): did not appear to affect Ser65 phosphorylation of the upper band but reduced phosphorylation of the lower of the two bands; Diameter (cm) of collagen gel (DU145): 3.2 cm; Diameter (cm) of collagen gel (PC-3): 3.5 cm; concentration shown to induce apoptosis [3]: above 20 μM; concentration inhibiting growth [4]: above 50 μmol
CC(C)=CCC/C(C)=C/CC/C(C)=C/CC[C@]1(C)CCc2cc(O)c(C)c(C)c2O1 [γ-tocotrienol]	modest monotonic decreases	16.5	modest monotonic decreases	27.4	−2.2	15.3	7	inhibited the invasive ability	–	MMP-2 activity (MMP-2; DU145 cells): modest monotonic decreases; MMP-2 activity (MMP-2; PC-3 cells): modest monotonic decreases
CC(O)(CCO)CC(=O)O (stereo not shown) [Mevalonate, mevalonate, reference compound]	–	–	–	–	–	–	–	–	65	reductase mRNA level lowered by (HMG-CoA reductase mRNA): 65%; HMG-CoA reductase half-life decreased by (HMG-CoA reductase [5]): approximately 60%
C=C(C)[C@@H]1CC=C(CO)CC1 [Perillyl Alcohol, perillyl alcohol]	nearly extinguished all MMP-9 activity	0.09	exhibited no similar effect	72.65	10.63	6.73	5	inhibited the invasive ability	89	impact on HMG-CoA reductase mRNA levels (HMG-CoA reductase mRNA): neither limonene nor perillyl alcohol had a significant impact; 4E-BP1 Ser65 phosphorylation (Western blot) (4E-BP1 (Ser65)): reduced Ser65 phosphorylation; Rab3A protein level (Western blot) (Rab3A): further reduce the levels of Rab3A protein; Diameter (cm) of collagen gel (DU145): 3.75 cm; extracellular matrix remodeling of gel ball (PC-3; PC3 cells, FIG. 9): retards matrix remodeling; Diameter (cm) of collagen gel (PC-3): 3.2 cm
C=C(C)[C@H]1CC=C(C)CC1 [limonene]	–	–	–	–	–	–	–	–	70	impact on HMG-CoA reductase mRNA levels (HMG-CoA reductase mRNA): neither limonene nor perillyl alcohol had a significant impact; effect on half-life of reductase (HMG-CoA reductase [5]): Neither limonene nor geraniol affected the half-life
CC(C)=CCC/C(C)=C/CO [Geraniol, geraniol]	–	–	–	–	–	–	–	–	98	reductase mRNA level lowered by (HMG-CoA reductase mRNA): 64%; effect on half-life of reductase (HMG-CoA reductase [5]): Neither limonene nor geraniol affected the half-life

Reference: US20040110848A1, “Method and kit for treating cancer” (priority 2002, published 2004)
